The values that follow come from patent US20250215010A1, “DIAZABICYCLOOCTANE DERIVATIVES USEFUL AS MATRIX METALLOPROTEINASE INHIBITORS” (VASA THERAPEUTICS SPOLKA Z OGRANICZONA ODPOWIEDZIALNOSCIA, priority 2022, published 2025).

Holding throughout (assay type): biochemical
One assay deals with T1, MMP2 (Homo sapiens, UniProt P08253).
T1 sequence (P08253 110-660): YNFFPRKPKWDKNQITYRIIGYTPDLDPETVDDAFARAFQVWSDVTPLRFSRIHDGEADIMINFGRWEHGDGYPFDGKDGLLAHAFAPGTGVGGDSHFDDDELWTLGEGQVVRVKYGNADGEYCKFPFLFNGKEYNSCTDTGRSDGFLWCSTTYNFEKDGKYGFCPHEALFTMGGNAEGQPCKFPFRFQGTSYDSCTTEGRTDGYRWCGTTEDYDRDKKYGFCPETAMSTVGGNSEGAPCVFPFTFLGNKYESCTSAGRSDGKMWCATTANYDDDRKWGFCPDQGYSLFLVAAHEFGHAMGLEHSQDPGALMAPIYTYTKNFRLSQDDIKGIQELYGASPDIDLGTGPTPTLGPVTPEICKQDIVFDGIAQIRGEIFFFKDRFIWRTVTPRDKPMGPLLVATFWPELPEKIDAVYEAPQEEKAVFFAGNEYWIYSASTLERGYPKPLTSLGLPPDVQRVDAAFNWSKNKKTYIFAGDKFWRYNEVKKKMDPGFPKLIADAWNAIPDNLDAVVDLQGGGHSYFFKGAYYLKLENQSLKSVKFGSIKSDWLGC
Description: MMP-2 colorimetric inhibition assay (Enzo kit BML-AK408). Conditions: thiopeptide substrate, absorbance 415 nm; read-out: MMP 2 IC50 class. In outline:
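Cleavage of the thiopeptide Ac-PLG-[2-mercapto-4-methylpentanoyl]-LG-OC2H5 releases a sulfhydryl that reacts with DTNB, read at 415 nm per the kit protocol. IC50 values (nM) come from inhibition curves of normalized data.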

The next assay concerns the target ADAM17 (TACE) (Homo sapiens, UniProt P78536). The assay is described as follows: TACE fluorometric inhibition assay (Enzo kit BML-AK310). The following applies: quenched fluorogenic peptide, ex/em 320/420 nm; read-out: TACE IC50 class. In short, it runs like this: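 Kit-based TACE assay run per manufacturer's protocol, using quenched fluorogenic peptide Mca-PLAQAV-Dpa-RSSSR-NH2 whose cleavage raises Mca fluorescence. Signal read at ex/em 320/420 nm; IC50 (nM) derived from inhibition curves of normalized values.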

In a further assay the target is MMP9 (Homo sapiens, UniProt P14780). The assay is described as follows: MMP-9 colorimetric inhibition assay (Enzo kit BML-AK410). The following applies: thiopeptide substrate, absorbance 415 nm; read-out: MMP 9 IC50 class. In outline: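 Colorimetric thioester-substrate assay: hydrolysis of Ac-PLG-[2-mercapto-4-methylpentanoyl]-LG-OC2H5 frees a thiol that reacts with DTNB, read at 415 nm. Run per kit protocol. IC50 (nM) taken from inhibition curves of normalized values.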
Chain of MMP9 (P14780 94-707): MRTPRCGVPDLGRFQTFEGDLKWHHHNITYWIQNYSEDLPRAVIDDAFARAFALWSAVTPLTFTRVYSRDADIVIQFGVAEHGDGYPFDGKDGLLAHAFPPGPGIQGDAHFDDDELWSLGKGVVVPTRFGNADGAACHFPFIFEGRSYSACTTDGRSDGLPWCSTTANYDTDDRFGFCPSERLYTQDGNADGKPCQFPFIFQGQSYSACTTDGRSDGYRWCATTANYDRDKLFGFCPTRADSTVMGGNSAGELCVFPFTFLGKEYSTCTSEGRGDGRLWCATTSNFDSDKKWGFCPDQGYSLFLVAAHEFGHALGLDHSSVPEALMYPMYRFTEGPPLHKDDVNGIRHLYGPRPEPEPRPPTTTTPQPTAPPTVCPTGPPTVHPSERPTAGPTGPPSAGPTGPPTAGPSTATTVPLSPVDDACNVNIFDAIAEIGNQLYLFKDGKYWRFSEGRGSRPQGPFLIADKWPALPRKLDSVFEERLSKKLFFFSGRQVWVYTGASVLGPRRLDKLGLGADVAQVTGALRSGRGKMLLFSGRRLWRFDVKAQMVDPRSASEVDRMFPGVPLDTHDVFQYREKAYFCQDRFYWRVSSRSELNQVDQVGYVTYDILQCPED

A further assay concerns the target T2, MMP1 (Homo sapiens, UniProt P03956).
T2 sequence (P03956 100-269 limits assumed): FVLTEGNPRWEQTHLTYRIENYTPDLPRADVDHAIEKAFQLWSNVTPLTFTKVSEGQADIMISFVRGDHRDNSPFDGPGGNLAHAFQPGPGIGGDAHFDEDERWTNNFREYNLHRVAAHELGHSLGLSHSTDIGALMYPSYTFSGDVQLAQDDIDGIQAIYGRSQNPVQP
Description: MMP-1 colorimetric inhibition assay (Enzo kit BML-AK404). Conditions: thiopeptide substrate, absorbance 415 nm; read-out: MMP 1 IC50 class. In short, it runs like this: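 Colorimetric kit run per manufacturer protocol. MMP-1 cleaves a thiopeptide substrate (Ac-PLG-[2-mercapto-4-methylpentanoyl]-LG-OC2H5); released thiol reacts with DTNB, monitored at 415 nm. IC50 (nM) from inhibition curves of normalized values.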

A further assay deals with T3, MMP13 (Homo sapiens, UniProt P45452).
T3 construct: purchased Enzo Life Sciences, Inc. BML-AK412
Description: MMP-13 colorimetric inhibition assay (Enzo kit BML-AK412). Conditions: thiopeptide substrate, absorbance 415 nm; read-out: MMP 13 IC50 class. In short, it runs like this:
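Thiopeptide chromogenic substrate (Ac-PLG-[2-mercapto-4-methylpentanoyl]-LG-OC2H5); MMP-13 hydrolysis of the thioester yields a thiol that reacts with DTNB, read at 415 nm. IC50 values (nM) derived from inhibition curves of normalized data.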

Chain of ADAM17 (TACE) (P78536 215-477 limits assumed): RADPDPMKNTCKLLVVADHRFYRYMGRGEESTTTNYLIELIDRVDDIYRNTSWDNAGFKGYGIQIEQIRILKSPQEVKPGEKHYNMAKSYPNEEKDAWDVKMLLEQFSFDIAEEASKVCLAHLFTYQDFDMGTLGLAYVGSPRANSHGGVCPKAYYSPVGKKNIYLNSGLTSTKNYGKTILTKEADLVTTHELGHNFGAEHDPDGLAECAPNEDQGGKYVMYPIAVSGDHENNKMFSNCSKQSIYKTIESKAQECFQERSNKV

As for `CN1CCN(C(=O)N2[C@@H]3CC[C@H]2[C@H](C(=O)NO)N(S(=O)(=O)c2ccc(Oc4ccc(F)cc4)nc2)C3)CC1` [Example 69, (1S,2R,5R)-3-((6-(4-fluorophenoxy)pyridin-3-yl)sulfonyl)-N-hydroxy-8-(4-methyl-piperazine-1-carbonyl)-3,8-diazabicyclo-[3.2.1]octane-2-carboxamide], the IC50 – broadly, the concentration that inhibits the measured activity by half – was less than 50 nM on MMP2; 1000 to 10000 nM at ADAM17 (TACE); 50 to 1000 nM at MMP9; 1000 to 10000 nM at MMP1; 50 to 1000 nM on MMP13.

For `CC(C)Oc1ccc(Oc2ccc(S(=O)(=O)N3C[C@H]4CC[C@@H]([C@@H]3C(=O)NO)N4C(=O)N3CCOCC3)cn2)cc1` [Example 71, (1S,2R,5R)-N-hydroxy-3-((6-(4-isopropoxyphenoxy)-pyridin-3-yl)sulfonyl)-8-(morpholine-4-carbonyl)-3,8-diazabicyclo[3.2.1]-octane-2-carboxamide], the half-maximal inhibitory concentration (IC50) was less than 50 nM on MMP2; more than 10000 nM at ADAM17 (TACE); 50 to 1000 nM at MMP9; 1000 to 10000 nM on MMP1; less than 50 nM at MMP13.

Turning to `CCN1CCC(Oc2ccc(S(=O)(=O)N3C[C@H]4CC[C@@H]([C@@H]3C(=O)NO)N4C(=O)OCCOC)cn2)CC1` [Example 74, 2-methoxyethyl (1S,2R,5R)-3-((6-((1-ethylpiperidin-4-yl)oxy)pyridin-3-yl)sulfonyl)-2-(hydroxycarbamoyl)-3,8-diazabicyclo[3.2.1]octane-8-carboxylate], the IC50 is more than 10000 nM at MMP2; more than 10000 nM on ADAM17 (TACE); 1000 to 10000 nM on MMP9; more than 10000 nM at MMP1; more than 10000 nM at MMP13.

Take `COCCOC(=O)N1[C@@H]2CC[C@H]1[C@H](C(=O)NO)N(S(=O)(=O)c1ccc(OC3CCN(C(C)C)CC3)nc1)C2` [Example 75, 2-methoxyethyl (1S,2R,5R)-2-(hydroxycarbamoyl)-3-((6-((1-isopropyl-piperidin-4-yl)oxy)-pyridin-3-yl)-sulfonyl)-3,8-diaza-bicyclo[3.2.1]octane-8-carboxylate]: the concentration for half-maximal inhibition (IC50) on MMP2 lay within 50 to 1000 nM; at ADAM17 (TACE), 1000 to 10000 nM; at MMP9, 50 to 1000 nM; on MMP1 it was 1000 to 10000 nM; at MMP13, 50 to 1000 nM.

For the molecule `COCCOC(=O)N1[C@@H]2CC[C@H]1[C@H](C(=O)NO)N(S(=O)(=O)N1CCN(Cc3ccc(Cl)cc3)CC1)C2` [Example 76, 2-methoxyethyl (1S,2R,5R)-3-((4-(4-chlorobenzyl)piperazin-1-yl)sulfonyl)-2-(hydroxycarbamoyl)-3,8-diazabicyclo[3.2.1]octane-8-carboxylate], the IC50 is 50 to 1000 nM on MMP2; 1000 to 10000 nM at ADAM17 (TACE); 50 to 1000 nM on MMP9; more than 10000 nM on MMP1; 50 to 1000 nM at MMP13.

Take `COCCOC(=O)N1[C@@H]2CC[C@H]1[C@H](C(=O)NO)N(S(=O)(=O)N1CCN(Cc3ccc(OC)cc3)CC1)C2` [Example 77, 2-methoxyethyl (1S,2R,5R)-2-(hydroxycarbamoyl)-3-((4-(4-methoxybenzyl)piperazin-1-yl)sulfonyl)-3,8-diazabicyclo[3.2.1]octane-8-carboxylate]: the 50% inhibitory concentration (IC50) is 50 to 1000 nM at MMP2; 1000 to 10000 nM at ADAM17 (TACE); 50 to 1000 nM at MMP9; more than 10000 nM at MMP1; 1000 to 10000 nM at MMP13.

`COCCOC(=O)N1[C@@H]2CC[C@H]1[C@H](C(=O)NO)N(S(=O)(=O)N1CCN(C(=O)c3ccc(Cl)cc3)CC1)C2` [Example 78, 2-methoxyethyl (1S,2R,5R)-3-((4-(4-chlorobenzoyl)piperazin-1-yl)sulfonyl)-2-(hydroxycarbamoyl)-3,8-diazabicyclo[3.2.1]octane-8-carboxylate]: the half-maximal inhibitory concentration (IC50) was 1000 to 10000 nM on MMP2; 1000 to 10000 nM at ADAM17 (TACE); 1000 to 10000 nM at MMP9; more than 10000 nM on MMP1; 1000 to 10000 nM at MMP13.

Consider `COCCOC(=O)N1[C@@H]2CC[C@H]1[C@H](C(=O)NO)N(S(=O)(=O)c1ccc(Oc3nc4ccccc4o3)c(F)c1)C2` [Example 79, 2-methoxyethyl (1S,2R,5R)-3-((4-(benzo[d]oxazol-2-yloxy)-3-fluorophenyl)sulfonyl)-2-(hydroxycarbamoyl)-3,8-diazabicyclo[3.2.1]octane-8-carboxylate], for which the IC50 on MMP2 was 50 to 1000 nM; on ADAM17 (TACE) it was 1000 to 10000 nM; at MMP9, 1000 to 10000 nM; at MMP1 it was more than 10000 nM; on MMP13, 50 to 1000 nM.

`COCCOC(=O)N1[C@@H]2CC[C@H]1[C@H](C(=O)NO)N(S(=O)(=O)c1ccc(Oc3nc4ccc(Cl)cc4o3)c(F)c1)C2` [Example 80, 2-methoxyethyl (1S,2R,5R)-3-((4-((6-chlorobenzo[d]-oxazol-2-yl)oxy)-3-fluorophenyl)-sulfonyl)-2-(hydroxycarbamoyl)-3,8-diazabicyclo-[3.2.1]octane-8-carboxylate]: the IC50 at MMP2 is 1000 to 10000 nM; on ADAM17 (TACE) it was 1000 to 10000 nM; at MMP9, 1000 to 10000 nM; on MMP1, more than 10000 nM; on MMP13, 1000 to 10000 nM.

`COCCOC(=O)N1[C@@H]2CC[C@H]1[C@H](C(=O)NO)N(S(=O)(=O)c1ccc(Oc3nc4cc(Cl)ccc4o3)c(F)c1)C2` [Example 81, 2-methoxyethyl (1S,2R,5R)-3-((4-((5-chlorobenzo[d]-oxazol-2-yl)oxy)-3-fluorophenyl)sulfonyl)-2-(hydroxy-carbamoyl)-3,8-diazabicyclo[3.2.1]-octane-8-carboxylate]: the IC50 was more than 10000 nM at MMP2; 1000 to 10000 nM on ADAM17 (TACE); 1000 to 10000 nM at MMP9; more than 10000 nM on MMP1; more than 10000 nM at MMP13.

For the molecule `COCCOC(=O)N1[C@@H]2CC[C@H]1[C@H](C(=O)NO)N(S(=O)(=O)c1ccc(Oc3nc4ccc(F)cc4o3)c(F)c1)C2` [Example 82, 2-methoxyethyl (1S,2R,5R)-3-((3-fluoro-4-((6-fluoro-benzo[d]oxazol-2-yl)oxy)phenyl)-sulfonyl)-2-(hydroxycarbamoyl)-3,8-diazabicyclo-[3.2.1]octane-8-carboxylate], the 50% inhibitory concentration (IC50) on MMP2 is 1000 to 10000 nM; on ADAM17 (TACE), 50 to 1000 nM; at MMP9, 1000 to 10000 nM; at MMP1 it was more than 10000 nM; on MMP13, 1000 to 10000 nM.
